How the values were obtained:
[1] = test system: ENR+CD organoids (ISC to Paneth cell differentiation); assay: Primary screen: CCh-stimulated lysozyme secretion LYZ.S, 2.5-D 384-well ENR+CD organoid differentiation; type: cell-based, mouse; settings: primary screen
Excerpt: (§1) High-throughput screening.

[2] = test system: ENR+CD organoids (ISC to Paneth cell differentiation); assay: Primary screen: basal (non-stimulated) lysozyme secretion LYZ.NS, 2.5-D 384-well ENR+CD organoid differentiation; type: cell-based, mouse
Excerpt: as §1

ENR+CD organoids = assay: Primary screen: ATP (CellTiter-Glo 3D, CTG) cell number/viability, 2.5-D 384-well ENR+CD organoids; settings: primary screen; for Z.CTG: standard z score;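 as to all read-outs here: compounds given at plating and again on day 3 over a 6-day differentiation from ENR+CV stem-cell-enriched precursors, ATP measured on day 6, plate median as control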
[3] = 1st dose row of the treatment (0.08 uM by row order; dose not reprinted)
[4] = 2nd dose row of the treatment (0.40 uM by row order; dose not reprinted)
[5] = 3rd dose row of the treatment (2.00 uM by row order; dose not reprinted)
[6] = 4th dose row of the treatment (10.00 uM by row order; dose not reprinted)
[7] = dose 0.08 uM, FC relative to plate median
[8] = dose 0.40 uM, FC relative to plate median
[9] = dose 2.00 uM, FC relative to plate median
[10] = dose 10.00 uM, FC relative to plate median

## CCOC(=O)CCNc1cc(N2CCc3ccccc3CC2)nc(-c2ccccn2)n1.Cl [GSK J4 HCl]
[1]; dose 0.08 uM
  Dose.FC.LYZ.S (log2 fold change): 0.086
[1]; dose 0.40 uM
  Dose.FC.LYZ.S (log2 fold change): 0.109
[1]; dose 2.00 uM
  Dose.FC.LYZ.S (log2 fold change): 0.041
[1]; dose 10.00 uM
  Dose.FC.LYZ.S (log2 fold change): −0.002
[2]; primary screen, dose 0.08 uM
  Dose.FC.LYZ.NS (log2 fold change): 0.058
  Z.LYZ.NS (standard z score): 0.508
[2]; primary screen, dose 0.40 uM
  Dose.FC.LYZ.NS (log2 fold change): 0.050
  Z.LYZ.NS (standard z score): 0.433
[2]; primary screen, dose 2.00 uM
  Dose.FC.LYZ.NS (log2 fold change): 0.018
  Z.LYZ.NS (standard z score): 0.153
[2]; primary screen, dose 10.00 uM
  Dose.FC.LYZ.NS (log2 fold change): −0.001
  Z.LYZ.NS (standard z score): −0.006
ENR+CD organoids; dose 0.08 uM
  Dose.FC.CTG (log2 fold change): 0.124
  Z.CTG (standard z score): 0.297
ENR+CD organoids; dose 0.40 uM
  Dose.FC.CTG (log2 fold change): 0.099
  Z.CTG (standard z score): 0.237
ENR+CD organoids; dose 2.00 uM
  Dose.FC.CTG (log2 fold change): 0.002
  Z.CTG (standard z score): 0.006
ENR+CD organoids; dose 10.00 uM
  Dose.FC.CTG (log2 fold change): 0.233
  Z.CTG (standard z score): 0.558

## COc1cc(F)c(C(C)C)cc1-c1ccc(C(F)(F)F)cc1CN1C(=O)O[C@H](c2cc(C(F)(F)F)cc(C(F)(F)F)c2)[C@@H]1C [Anacetrapib (MK-0859)]
[1]; dose 0.08 uM
  Dose.FC.LYZ.S: 0.051 log2 fold change
[1]; dose 0.40 uM
  Dose.FC.LYZ.S: −0.002 log2 fold change
[1]; dose 2.00 uM
  Dose.FC.LYZ.S: −0.046 log2 fold change
[1]; dose 10.00 uM
  Dose.FC.LYZ.S: −0.036 log2 fold change
[2]; primary screen, dose 0.08 uM
  Dose.FC.LYZ.NS: 0.013 log2 fold change
  Z.LYZ.NS (standard z score): 0.112
[2]; primary screen, dose 0.40 uM
  Dose.FC.LYZ.NS: 0.007 log2 fold change
  Z.LYZ.NS (standard z score): 0.060
[2]; primary screen, dose 2.00 uM
  Dose.FC.LYZ.NS: −0.015 log2 fold change
  Z.LYZ.NS (standard z score): −0.129
[2]; primary screen, dose 10.00 uM
  Dose.FC.LYZ.NS: −0.036 log2 fold change
  Z.LYZ.NS (standard z score): −0.314
ENR+CD organoids; dose 0.08 uM
  Dose.FC.CTG: −0.090 log2 fold change
  Z.CTG (standard z score): −0.214
ENR+CD organoids; dose 0.40 uM
  Dose.FC.CTG: 0.035 log2 fold change
  Z.CTG (standard z score): 0.084
ENR+CD organoids; dose 2.00 uM
  Dose.FC.CTG: −0.094 log2 fold change
  Z.CTG (standard z score): −0.225
ENR+CD organoids; dose 10.00 uM
  Dose.FC.CTG: 0.031 log2 fold change
  Z.CTG (standard z score): 0.075

## O=C(O)C(Cc1ccccc1[N+](=O)[O-])=NNc1nc(-c2ccc(Cl)c(Cl)c2)cs1 (mixture of isomers) [4EGI-1]
[1]; [3]
  SSMD.LYZ.S_Rep (strictly standardized mean difference): −0.264
  Z.LYZ.S (standard z score): −0.236
[1]; [4]
  SSMD.LYZ.S_Rep (strictly standardized mean difference): 0.326
  Z.LYZ.S (standard z score): 0.352
[1]; [5]
  SSMD.LYZ.S_Rep (strictly standardized mean difference): −0.328
  Z.LYZ.S (standard z score): −0.380
[1]; [6]
  SSMD.LYZ.S_Rep (strictly standardized mean difference): 0.189
  Z.LYZ.S (standard z score): 0.366
[1]; dose 0.08 uM
  Dose.FC.LYZ.S: −0.037 log2 fold change
[1]; dose 0.40 uM
  Dose.FC.LYZ.S: 0.054 log2 fold change
[1]; dose 2.00 uM
  Dose.FC.LYZ.S: −0.059 log2 fold change
[1]; dose 10.00 uM
  Dose.FC.LYZ.S: 0.057 log2 fold change
[2]; primary screen, 1st dose row of the treatment (0.08 uM by row order; dose not reprinted)
  SSMD.LYZ.NS_Rep (strictly standardized mean difference): 0.378
[2]; primary screen, 2nd dose row of the treatment (0.40 uM by row order; dose not reprinted)
  SSMD.LYZ.NS_Rep (strictly standardized mean difference): 0.264
[2]; primary screen, 3rd dose row of the treatment (2.00 uM by row order; dose not reprinted)
  SSMD.LYZ.NS_Rep (strictly standardized mean difference): 0.252
[2]; primary screen, 4th dose row of the treatment (10.00 uM by row order; dose not reprinted)
  SSMD.LYZ.NS_Rep (strictly standardized mean difference): −0.257
[2]; primary screen, dose 0.08 uM
  Dose.FC.LYZ.NS: 0.110 log2 fold change
  Z.LYZ.NS (standard z score): 0.956
[2]; primary screen, dose 0.40 uM
  Dose.FC.LYZ.NS: 0.036 log2 fold change
  Z.LYZ.NS (standard z score): 0.315
[2]; primary screen, dose 2.00 uM
  Dose.FC.LYZ.NS: 0.069 log2 fold change
  Z.LYZ.NS (standard z score): 0.597
[2]; primary screen, dose 10.00 uM
  Dose.FC.LYZ.NS: −0.034 log2 fold change
  Z.LYZ.NS (standard z score): −0.300
ENR+CD organoids; [3]
  SSMD.CTG.Rep (strictly standardized mean difference): −0.352
ENR+CD organoids; [4]
  SSMD.CTG.Rep (strictly standardized mean difference): −0.158
ENR+CD organoids; [5]
  SSMD.CTG.Rep (strictly standardized mean difference): 0.407
ENR+CD organoids; [6]
  SSMD.CTG.Rep (strictly standardized mean difference): −0.283
ENR+CD organoids; dose 0.08 uM
  Dose.FC.CTG: −0.160 log2 fold change
  Z.CTG (standard z score): −0.383
ENR+CD organoids; dose 0.40 uM
  Dose.FC.CTG: −0.131 log2 fold change
  Z.CTG (standard z score): −0.314
ENR+CD organoids; dose 2.00 uM
  Dose.FC.CTG: 0.127 log2 fold change
  Z.CTG (standard z score): 0.304
ENR+CD organoids; dose 10.00 uM
  Dose.FC.CTG: −0.109 log2 fold change
  Z.CTG (standard z score): −0.261

## COc1cc2c(cc1OC)[C@@H]1Cc3ccc(OC)c(OC)c3CN1CC2 [Rotundine]
[1]; [7]
  Dose.FC.LYZ.S: 0.151 log2 fold change
[1]; [8]
  Dose.FC.LYZ.S: 0.049 log2 fold change
[1]; [9]
  Dose.FC.LYZ.S: 0.080 log2 fold change
[1]; [10]
  Dose.FC.LYZ.S: 0.095 log2 fold change
[2]; primary screen, dose 0.08 uM, FC relative to plate median
  Dose.FC.LYZ.NS: 0.124 log2 fold change
[2]; primary screen, dose 0.08 uM, standard z score
  Z.LYZ.NS: 1.082
[2]; primary screen, dose 0.40 uM, FC relative to plate median
  Dose.FC.LYZ.NS: 0.032 log2 fold change
[2]; primary screen, dose 0.40 uM, standard z score
  Z.LYZ.NS: 0.282
[2]; primary screen, dose 2.00 uM, FC relative to plate median
  Dose.FC.LYZ.NS: 0.072 log2 fold change
[2]; primary screen, dose 2.00 uM, standard z score
  Z.LYZ.NS: 0.623
[2]; primary screen, dose 10.00 uM, FC relative to plate median
  Dose.FC.LYZ.NS: 0.126 log2 fold change
[2]; primary screen, dose 10.00 uM, standard z score
  Z.LYZ.NS: 1.100
ENR+CD organoids; [7]
  Dose.FC.CTG: 0.359 log2 fold change
ENR+CD organoids; [8]
  Dose.FC.CTG: 0.343 log2 fold change
ENR+CD organoids; [9]
  Dose.FC.CTG: 0.190 log2 fold change
ENR+CD organoids; [10]
  Dose.FC.CTG: 0.227 log2 fold change

## COc1cc2c(cc1Cc1cccc(Cl)c1F)c(=O)c(C(=O)O)cn2[C@H](CO)C(C)C [Elvitegravir (GS-9137, JTK-303)]
[1]; dose 0.08 uM
  Dose.FC.LYZ.S: −0.010 log2 fold change
[1]; dose 0.40 uM
  Dose.FC.LYZ.S: 0.092 log2 fold change
[1]; dose 2.00 uM
  Dose.FC.LYZ.S: −0.126 log2 fold change
[1]; dose 10.00 uM
  Dose.FC.LYZ.S: −0.135 log2 fold change
[2]; primary screen, dose 0.08 uM
  Dose.FC.LYZ.NS: −0.047 log2 fold change
[2]; primary screen, dose 0.40 uM
  Dose.FC.LYZ.NS: −0.069 log2 fold change
[2]; primary screen, dose 2.00 uM
  Dose.FC.LYZ.NS: −0.094 log2 fold change
[2]; primary screen, dose 10.00 uM
  Dose.FC.LYZ.NS: −0.090 log2 fold change
[2]; primary screen, standard z score, dose 0.08 uM
  Z.LYZ.NS: −0.412
[2]; primary screen, standard z score, dose 0.40 uM
  Z.LYZ.NS: −0.598
[2]; primary screen, standard z score, dose 2.00 uM
  Z.LYZ.NS: −0.821
[2]; primary screen, standard z score, dose 10.00 uM
  Z.LYZ.NS: −0.782
ENR+CD organoids; dose 0.08 uM
  Dose.FC.CTG: −0.001 log2 fold change
  Z.CTG: −0.001
ENR+CD organoids; dose 0.40 uM
  Dose.FC.CTG: −0.040 log2 fold change
  Z.CTG: −0.095
ENR+CD organoids; dose 2.00 uM
  Dose.FC.CTG: −0.344 log2 fold change
  Z.CTG: −0.823
ENR+CD organoids; dose 10.00 uM
  Dose.FC.CTG: −0.737 log2 fold change
  Z.CTG: −1.760

Reference: patent US20220323406A1, “METHODS AND COMPOSITIONS FOR DIFFERENTIATING STEM CELLS” (Massachusetts Institute of Technology, priority 2019, published 2022)
